According to ChEMBL document CHEMBL2429854, “Influences of hydrocarbon linkers on the receptor binding affinities of gonadotropin-releasing hormone peptides” (Bioorg Med Chem Lett, 2013):

What was measured:
[1] = molecular target: T1, Gonadotropin-releasing hormone receptor (Homo sapiens, UniProt P30968); experiment: Displacement of [125I]-[DTrp6]-LH-RH from human GnRH receptor after 3 hrs by gamma counting
T1 sequence (P30968 whole entry): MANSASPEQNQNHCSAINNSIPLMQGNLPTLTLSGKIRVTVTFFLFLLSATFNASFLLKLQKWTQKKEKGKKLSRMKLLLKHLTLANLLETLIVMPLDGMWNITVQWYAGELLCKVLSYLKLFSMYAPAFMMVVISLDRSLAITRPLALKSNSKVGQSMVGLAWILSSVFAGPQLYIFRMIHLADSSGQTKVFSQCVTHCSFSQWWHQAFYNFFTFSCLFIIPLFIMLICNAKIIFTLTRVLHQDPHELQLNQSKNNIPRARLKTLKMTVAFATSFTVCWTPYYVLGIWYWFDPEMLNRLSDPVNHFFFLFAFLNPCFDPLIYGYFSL

[2] = molecular target: T2, Gonadotropin-releasing hormone receptor (Homo sapiens) (UniProt P30968); experiment: Displacement of [111In]-DOTA-Aun-(D-Lys6-GnRH) from human GnRH receptor after 3 hrs by gamma-counting; details: concentration not given here
T2 sequence (whole entry): T1 sequence (P30968 whole entry)

IC50 [1] [nM]	inhibition [2] [%]	SMILES
134	–	CC(C)C[C@H](NC(=O)[C@@H](CCCCNC(=O)CCCNC(=O)CN1CCN(CC(=O)O)CCN(CC(=O)O)CCN(CC(=O)O)CC1)NC(=O)[C@H](Cc1ccc(O)cc1)NC(=O)[C@H](CO)NC(=O)[C@H](Cc1c[nH]c2ccccc12)NC(=O)[C@H](Cc1cnc[nH]1)NC(=O)[C@@H]1CCC(=O)N1)C(=O)N[C@@H](CCCN=C(N)N)C(=O)N1CCC[C@H]1C(=O)NCC(N)=O
–	85	CC(C)C[C@H](NC(=O)[C@@H](CCCCNC(=O)CCCCCCCCCCNC(=O)CN1CCN(CC(=O)O)CCN(CC(=O)O)CCN(CC(=O)O)CC1)NC(=O)[C@H](Cc1ccc(O)cc1)NC(=O)[C@H](CO)NC(=O)[C@H](Cc1c[nH]c2ccccc12)NC(=O)[C@H](Cc1cnc[nH]1)NC(=O)[C@@H]1CCC(=O)N1)C(=O)N[C@@H](CCCNC(=N)N)C(=O)N1CCC[C@H]1C(=O)NCC(N)=O
